Experiment [1] deals with human platelet rich plasma. As to the kind of experiment: Inhibition of human platelet aggregation, "Born"-method using single cuvettes. As to conditions: 0.1 h, ADP-induced aggregation, 6 minutes. Format: cell-based. As for the experimental part: Inhibition of Human Platelet Aggregation
Alternatively to a binding assay which measures a compound's ability to bind to the P2Y12 receptor, the effect on cellular function was also determined. This ability of the compound was evaluated in two platelet aggregation assays: in 96-well plates and with the “Born”-method using single cuvettes.
Whole blood was collected from healthy volunteers using 20 ml syringes containing 2 ml of buffered Citrate. The anticoagulated whole blood was transferred into 15 ml polypropylene conical tubes (10 ml per tube). The tubes were centrifuged for 15 minutes at 340×g at RT without using the centrifuge brake. This procedure leads to a pellet of cellular components and a supernatant of platelet rich plasma (PRP). The PRP layer was collected from each tube and pooled for each donor. To avoid carry over of cellular components following centrifugation, approximately 5 ml of PRP was left in the tube. The platelet concentration was determined using a Coulter Counter.
The 15 ml tubes containing the pellet of cellular components were centrifuged again for 10 minutes at 1940×g. This pelleted out most particulate blood constituents remaining, leaving a layer of Platelet Poor Plasma (PPP). The PPP was collected for each donor. The PRP layer, previously set aside, was diluted with PPP to a final concentration of approximately 3×E8 platelets/ml with the PPP.
The human platelet aggregation assay is performed in single use cuvettes using the platelet aggregation profiler (PAP-4 or -8, Bio/Data corporation).
In the assay cuvette 4 μl of test compound at 100× final concentration in DMSO is mixed with 392 μl fresh PRP and incubated for 2 minutes at 37° C. with 1.200 rpm stirring. Following that incubation period, 4 μl of 250 μM ADP is added to the reaction mix. This addition of ADP is sufficient to induce aggregation in the absence of an inhibitor. After that aggregation is measured over 6 minutes at 37° C. with 1.200 rpm stirring. Results of the assay are expressed as % inhibition, and are calculated using maximum aggregation (Tmax) or area under curve (AUC) of the absorbance over 6 minutes.
The IC50 data of the above described platelet aggregation assay using human platelet rich plasma for exemplary compounds of the present invention are shown in table 3.

For experiment [2], the system named is human platelet rich plasma. Put plainly: Inhibition of human platelet aggregation, 96-well assay. It is filed as cell-based. As to conditions: Homo sapiens, Platelet, 20 min. The essentials:
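ADP-induced aggregation read as 650 nm absorbance every minute for 20 min at 37 °C, with shaking between reads. PRP (~3×E8 platelets/ml, diluted with PPP, ACD-A blood from healthy volunteers) was exposed to compound for 5 min before adding a 40 μM ADP stock (15 μl into 150 μl).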

The next experiment addresses human P2Y12 receptor (Homo sapiens, UniProt Q9H244). As to the kind of experiment: Human P2Y12 recombinant cell membrane binding assay with 33P 2MeS-ADP. To be noted: competition against 33P 2MeS-ADP, membranes of CHO cells with recombinant human P2Y12 receptor. The essentials:
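Competition binding against radiolabeled 2MeS-ADP (1.61 nM as added) on membranes from recombinant human P2Y12 CHO cells, 20 min RT after 15 min compound preincubation, pH 7.4. Filtration then scintillation counting; compounds tested in triplicate from 10 μM final, five-fold dilutions, curve fit with plate-defined min/max.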

Here are results for 16 compounds from patent US8426420B2, “Heterocyclic pyrazole-carboxamidesas P2Y12 antagonists” (Sanofi, priority 2007, dated 2013).

As usually defined, the IC50 is the concentration at which inhibition is half-maximal.

Chain of human P2Y12 receptor (Q9H244 whole entry): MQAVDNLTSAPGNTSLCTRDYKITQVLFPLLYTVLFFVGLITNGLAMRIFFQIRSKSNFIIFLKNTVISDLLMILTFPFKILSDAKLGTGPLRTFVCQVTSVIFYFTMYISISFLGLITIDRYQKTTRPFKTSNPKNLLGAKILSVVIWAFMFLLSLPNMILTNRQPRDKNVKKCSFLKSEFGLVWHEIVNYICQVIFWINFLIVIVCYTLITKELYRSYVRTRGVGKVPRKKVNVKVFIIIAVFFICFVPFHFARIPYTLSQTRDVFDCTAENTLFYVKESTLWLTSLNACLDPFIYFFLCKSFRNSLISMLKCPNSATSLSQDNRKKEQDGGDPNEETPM

`CCCCNC(=O)[C@@H]1CCCN1C(=O)COc1cc(C(=O)N[C@@H](CCC(=O)O)C(=O)N2CCN(C(=O)OCC)CC2)nn1-c1ccccc1` [Example 11, 4-{(S)-4-Carboxy-2-[(5-{2-[(S)-2-butylcarbamoyl-pyrrolidin-1-yl]-2-oxo-ethoxy}-1-phenyl-1H-pyrazole-3-carbonyl)-amino]-butyryl}-piperazine-1-carboxylic acid ethyl ester]: the IC50 in experiment [1] came to 120 nM; in experiment [2], 30 nM.
In the case of `CCOC(=O)N1CCN(C(=O)[C@H](CCC(=O)O)NC(=O)c2cc(OCC(=O)N3CCC[C@H]3C(=O)NC3CCCC3)n(-c3ccccc3)n2)CC1` [Example 13, 4-{(S)-4-Carboxy-2-[(5-{2-[(S)-2-cyclopentylcarbamoyl-pyrrolidin-1-yl]-2-oxo-ethoxy}-1-phenyl-1H-pyrazole-3-carbonyl)-amino]-butyryl}-piperazine-1-carboxylic acid ethyl ester], the IC50 in experiment [1] is 38 nM; in experiment [2] it was 10 nM.
Turning to `CCOC(=O)N1CCN(C(=O)[C@H](CCC(=O)O)NC(=O)c2cc(OCC(=O)N3CCC[C@H]3C(=O)NCC3CC3)n(-c3ccccc3)n2)CC1` [Example 16, 4-{(S)-4-Carboxy-2-[(5-{2-[(S)-2-(cyclopropylmethyl-carbamoyl)-pyrrolidin-1-yl]-2-oxo-ethoxy}-1-phenyl-1H-pyrazole-3-carbonyl)-amino]-butyryl}-piperazine-1-carboxylic acid ethyl ester], in experiment [1], it took 46 nM to reach half-maximal inhibition (IC50).
As for `CCOC(=O)N1CCN(C(=O)[C@H](CCC(=O)O)NC(=O)c2cc(O[C@@H](C)C(=O)N3CCC[C@H]3C(=O)NC3CCC3)n(-c3ccccc3)n2)CC1` [Example 67, 4-[(S)-4-Carboxy-2-({5-[(S)-2-((S)-2-cyclobutylcarbamoyl-pyrrolidin-1-yl)-1-methyl-2-oxo-ethoxy]-1-phenyl-1H-pyrazole-3-carbonyl}-amino)-butyryl]-piperazine-1-carboxylic acid ethyl ester], the IC50 in experiment [1] was 950 nM; in experiment [2], 110 nM.
Regarding `CCOC(=O)N1CCN(C(=O)[C@H](CC(O)CO)NC(=O)c2cc(OCC(=O)N3CCC[C@H]3C(=O)NC3CCC3)n(-c3ccccc3)n2)CC1` (stereo partly drawn) [Example 117, 4-[(S)-2-({5-[2-((S)-2-Cyclobutylcarbamoyl-pyrrolidin-1-yl)-2-oxo-ethoxy]-1-phenyl-1H-pyrazole-3-carbonyl}-amino)-4,5-dihydroxy-pentanoyl]-piperazine-1-carboxylic acid ethyl ester], the IC50 in experiment [1] stood at 220 nM.
On to `CCCCOC(=O)N1CCN(C(=O)[C@H](CCC(=O)O)NC(=O)c2cc(OCC(=O)N3CCC[C@H]3C(=O)NC3CCC3)n(-c3ccccc3)n2)CC1` [Example 119, 4-[(S)-4-Carboxy-2-({5-[2-((S)-2-cyclobutylcarbamoyl-pyrrolidin-1-yl)-2-oxo-ethoxy]-1-phenyl-1H-pyrazole-3-carbonyl}-amino)-butyryl]-piperazine-1-carboxylic acid butyl ester], for which the figures for the IC50 in experiment [1] and in experiment [2] were 13 nM and 20 nM, respectively.
Taken in the same sequence, the figures for `CCCCOC(=O)N1CCN(C(=O)[C@H](CCc2nn[nH]n2)NC(=O)c2cc(OCC(=O)N3CCC[C@H]3C(=O)NC3CCC3)n(-c3ccccc3)n2)CC1` [Example 126, 4-[(S)-2-({5-[2-((S)-2-Cyclobutylcarbamoyl-pyrrolidin-1-yl)-2-oxo-ethoxy]-1-phenyl-1H-pyrazole-3-carbonyl}-amino)-4-(2H-tetrazol-5-yl)-butyryl]-piperazine-1-carboxylic acid butyl ester] were 79 nM and 50 nM.
Taken in the same sequence, the figures for `CCOC(=O)N1CCN(C(=O)[C@H](CCC(=O)O)NC(=O)c2cc(OCC(=O)N3CCC[C@H]3c3cc(C)no3)n(-c3ccccc3)n2)CC1` [Example 173, 4-{(S)-4-Carboxy-2-[(5-{2-[(S)-2-(3-methyl-isoxazol-5-yl)-pyrrolidin-1-yl]-2-oxo-ethoxy}-1-phenyl-1H-pyrazole-3-carbonyl)-amino]-butyryl}-piperazine-1-carboxylic acid ethyl ester] were 940 nM and 860 nM.
Taken in the same sequence, the figures for `CCOC(=O)N1CCN(C(=O)[C@H](CCC(=O)O)NC(=O)c2cc(OCC(=O)N3CCC[C@H]3c3nc(C)no3)n(-c3ccccc3)n2)CC1` [Example 174, 4-{(S)-4-Carboxy-2-[(5-{2-[(S)-2-(3-methyl-[1,2,4]oxadiazol-5-yl)-pyrrolidin-1-yl]-2-oxo-ethoxy}-1-phenyl-1H-pyrazole-3-carbonyl)-amino]-butyryl}-piperazine-1-carboxylic acid ethyl ester] were 2220 nM and 760 nM.
In the case of `CCOC(=O)N1CCN(C(=O)CNC(=O)c2cc(OCC(=O)N3CCC[C@H]3C(=O)NC3CCC3)n(-c3ccccc3)n2)CC1` [Example 181, 4-[2-({5-[2-((S)-2-Cyclobutylcarbamoyl-pyrrolidin-1-yl)-2-oxo-ethoxy]-1-phenyl-1H-pyrazole-3-carbonyl}-amino)-acetyl]-piperazine-1-carboxylic acid ethyl ester], the concentration for half-maximal inhibition (IC50) in experiment [1] came out at 100 nM; in experiment [2], 90 nM.
`CCOC(=O)N1CCN(C(=O)[C@H](C)NC(=O)c2cc(OCC(=O)N3CCC[C@H]3C(=O)NC3CCC3)n(-c3ccccc3)n2)CC1` [Example 185, 4-[(S)-2-({5-[2-((S)-2-Cyclobutylcarbamoyl-pyrrolidin-1-yl)-2-oxo-ethoxy]-1-phenyl-1H-pyrazole-3-carbonyl}-amino)-propionyl]-piperazine-1-carboxylic acid ethyl ester]: in experiment [1], half-maximal inhibition (IC50) required 90 nM.
Consider `O=C(NCC(=O)N1CCN(C(=O)OCCC(F)(F)F)CC1)c1cc(OCC(=O)N2CCC[C@H]2C(=O)NC2CCC2)n(-c2ccccc2)n1` [Example 256, 4-[2-({5-[2-((S)-2-Cyclobutylcarbamoyl-pyrrolidin-1-yl)-2-oxo-ethoxy]-1-phenyl-1H-pyrazole-3-carbonyl}-amino)-acetyl]-piperazine-1-carboxylic acid 3,3,3-trifluoro-propyl ester], for which the IC50 in experiment [1] came to 190 nM; in experiment [2], 130 nM.
`CCOC(=O)N1CCN(C(=O)[C@H](CF)NC(=O)c2cc(OCC(=O)N3CCC[C@H]3C(=O)NC3CCC3)n(-c3ccccc3)n2)CC1` [Example 261, 4-[(R)-2-({5-[2-((S)-2-Cyclobutylcarbamoyl-pyrrolidin-1-yl)-2-oxo-ethoxy]-1-phenyl-1H-pyrazole-3-carbonyl}-amino)-3-fluoro-propionyl]-piperazine-1-carboxylic acid ethyl ester]: the IC50 was 60 nM in experiment [2] and 18 nM at human P2Y12 receptor.
On the same counts, the results for `O=C(NCC(=O)N1CCN(C(=O)OC2CCCC2)CC1)c1cc(OCC(=O)N2CCC[C@H]2C(=O)NC2CCC2)n(-c2ccccc2)n1` [Example 268, 4-[2-({5-[2-((S)-2-Cyclobutylcarbamoyl-pyrrolidin-1-yl)-2-oxo-ethoxy]-1-phenyl-1H-pyrazole-3-carbonyl}-amino)-acetyl]-piperazine-1-carboxylic acid cyclopentyl ester] are 20 nM and 99 nM.
On the same counts, the results for `CCCCOC(=O)N1CCN(C(=O)CNC(=O)c2cc(OCC(=O)N3C[C@H](O)C[C@H]3C(=O)NC3CCC3)n(-c3ccccc3)n2)CC1` [Example 270, 4-[2-({5-[2-((2S,4R)-2-Cyclobutylcarbamoyl-4-hydroxy-pyrrolidin-1-yl)-2-oxo-ethoxy]-1-phenyl-1H-pyrazole-3-carbonyl}-amino)-acetyl]-piperazine-1-carboxylic acid butyl ester] are 17 nM and 40 nM.
In the case of `CCCOC(=O)N1CCN(C(=O)[C@H](CC(F)(F)F)NC(=O)c2cc(OCC(=O)N3CCC[C@H]3C(=O)NC3CCC3)n(-c3ccccc3)n2)CC1` [Example 273, 4-[(S)-2-({5-[2-((S)-2-Cyclobutylcarbamoyl-pyrrolidin-1-yl)-2-oxo-ethoxy]-1-phenyl-1H-pyrazole-3-carbonyl}-amino)-4,4,4-trifluoro-butyryl]-piperazine-1-carboxylic acid propyl ester], the IC50 in experiment [2] stood at 380 nM; on human P2Y12 receptor, 160 nM.
